Reference: PubChem BioAssay (NCI)
Several values for one entry are separate records, joined by “and”; a condition that tells them apart may be missing. Equal entries are not always repeated.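 Briefly, cells in 96-well plates were exposed to five compound concentrations for 48 h, and endpoints were estimated by linear interpolation. GI50 = concentration required for 50% inhibition of growth. TGI marks complete inhibition of growth.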

How the values were obtained:
Experiment in all cases: inhibition of tumour cell growth, NCI panel, 48 h
DU-145 prostate = tested on: DU-145 prostate
UACC-257 melanoma = tested on: UACC-257 melanoma
HL-60(TB) leukemia = tested on: HL-60(TB) leukemia
CAKI-1 renal = tested on: CAKI-1 renal
U251 CNS = tested on: U251 CNS
NCI-H23 lung = tested on: NCI-H23 lung
OVCAR-4 ovarian = tested on: OVCAR-4 ovarian
HS 578T breast = tested on: HS 578T breast
M14 melanoma = tested on: M14 melanoma
LOX IMVI melanoma = tested on: LOX IMVI melanoma

Row | Compound | GI50 (DU-145 prostate) | TGI (DU-145 prostate) | GI50 (UACC-257 melanoma) | TGI (UACC-257 melanoma) | GI50 (HL-60(TB) leukemia) | TGI (HL-60(TB) leukemia) | GI50 (CAKI-1 renal) | TGI (CAKI-1 renal) | GI50 (U251 CNS) | TGI (U251 CNS) | GI50 (NCI-H23 lung) | TGI (NCI-H23 lung) | GI50 (OVCAR-4 ovarian) | TGI (OVCAR-4 ovarian) | GI50 (HS 578T breast) | TGI (HS 578T breast) | GI50 (M14 melanoma) | TGI (M14 melanoma) | GI50 (LOX IMVI melanoma) | TGI (LOX IMVI melanoma)
1 | CCCS(=O)(=O)Nc1ccc(F)c(C(=O)c2c[nH]c3ncc(-c4ccc(Cl)cc4)cc23)c1F | 5.62 µM and 7.49 µM | 19.7 µM and > 10 µM | 0.0485 µM and 0.0643 µM | 3.71 µM and 0.604 µM | 3.64 µM and > 10 µM | 12.2 µM and > 10 µM | 2.63 µM and 2.81 µM | 16.5 µM and > 10 µM | 3.37 µM and 4.02 µM | 15.9 µM and > 10 µM | 7.82 µM and > 10 µM | 26.6 µM and > 10 µM | 6.13 µM and > 7.33 µM | 25.7 µM and > 10 µM | 1.3 µM and 1.96 µM | 6.44 µM and 9.94 µM | 0.0403 µM and 0.0413 µM | 1.34 µM and 2.21 µM | 1.47 µM and 1.27 µM | 15.2 µM and > 10 µM
2 | COc1ccc(N2CCN(C(=O)c3ccccc3Nc3ccnc(C(F)(F)F)c3)CC2)cc1 | > 100 µM | > 100 µM | 20.8 µM | > 100 µM | 32.3 µM | > 100 µM | 48.8 µM | > 100 µM | 83.9 µM | > 100 µM | 17.3 µM | > 100 µM | 22.4 µM | > 100 µM | 60.6 µM | > 100 µM | 87.3 µM | > 100 µM | 60.1 µM | > 100 µM
3 | COc1ccc2c(c1)CCC1C2CC[C@@]2(C)C1CC[C@@]2(O)CNC(=O)/C=C/c1ccc(O)c(OC)c1 (some centres not stated) | 36.6 µM | > 100 µM | 28 µM | 80 µM | 8.46 µM | > 100 µM | 21.9 µM | > 100 µM | 19 µM | 76.6 µM | 25.5 µM | > 100 µM | 14.9 µM | > 100 µM | 75.3 µM | > 100 µM | 15.8 µM | 53 µM | 7.76 µM | 20.5 µM
4 | CN(C)c1ccc(/C=C2\C[C@H]3[C@@H]4CC=C5C[C@@H](N6CCCC6)CC[C@]5(C)[C@H]4CC[C@]3(C)[C@H]2O)cc1 | 13.7 µM | 13.7 µM and > 100 µM | 2.09 µM | 1.89 µM and 4.02 µM | 2.3 µM | 2.31 µM and 4.86 µM | 1.99 µM | 3.88 µM and 23.9 µM | 1.78 µM | 1.92 µM and 3.31 µM | 16.8 µM | 9.93 µM and 58 µM | 2.16 µM | 2 µM and 5.96 µM | 2.83 µM | 2.5 µM and 7.93 µM | 1.8 µM | 1.45 µM and 3.63 µM | 2.25 µM | 1.57 µM and 4.72 µM
5 | C=C(CN1CCN(c2ccccc2OC)CC1)c1ccc(C(=O)Nc2ccccc2N)cc1 | 3.8 µM | 39.5 µM | – | – | 1.81 µM | > 50 µM | 3.86 µM | 14.3 µM | 1.7 µM | 11.1 µM | 0.447 µM | 3.24 µM | 3.2 µM | 23.6 µM | 3.58 µM | > 50 µM | 12.1 µM | > 50 µM | 0.243 µM | 1.42 µM
6 | CN1/C(=C\C(I)C(I)C2=[N+](C)c3ccccc3C2(C)C)C(C)(C)c2ccccc21 (configuration not stated) | 0.386 µM | > 56.7 µM | 0.175 µM | 2.24 µM | 0.178 µM | 0.651 µM | 0.974 µM | > 38.6 µM | 0.262 µM | 15.7 µM | 0.114 µM | 9.33 µM | 0.25 µM | 22.5 µM | 0.992 µM | 39.2 µM | 0.367 µM | 13.2 µM | 0.295 µM | 13.4 µM
7 | C#CCN1C(=O)/C(=c2\sc3n(c2=O)C2C(NN=3)N(CC)C(=O)N2CC)c2ccccc21 (configuration not stated) | 1.04 µM | > 38.6 µM | 49.2 µM | > 100 µM | 0.271 µM | 0.775 µM | 0.459 µM | > 54.2 µM | 0.648 µM | > 47 µM | 1.51 µM | 37.2 µM | > 27.3 µM | > 100 µM | 0.368 µM | 32.8 µM | 0.283 µM | – | 0.73 µM | > 100 µM
8 | COc1ccc(OC)c(-c2nc3sccn3c2/C=C2/C(=O)Nc3ccc(Cl)cc32)c1 | 41.3 µM | > 100 µM | 21.4 µM | 44.3 µM | 31.2 µM | 76 µM | 30.1 µM | > 100 µM | 24.9 µM | 74.1 µM | 21.4 µM | 51.4 µM | 26.8 µM | 73.9 µM | 15.6 µM | 53.5 µM | 23.1 µM | 53.8 µM | 18.2 µM | 40.5 µM
9 | C(=N\Nc1nnc2c(n1)[nH]c1ccccc12)/c1cccnc1 | – | > 100 µM | – | > 100 µM | – | > 100 µM | – | > 100 µM | – | > 100 µM | – | > 100 µM | – | > 100 µM | – | > 100 µM | – | 46.2 µM | – | > 100 µM
10 | O=C(c1ccccc1Nc1ccnc(C(F)(F)F)c1)N1CCN(c2cccc(Cl)c2)CC1 | 28.1 µM | > 100 µM | 12.8 µM | 49.2 µM | 16.2 µM | 59 µM | 21 µM | 75 µM | 24.5 µM | 99.4 µM | 17.6 µM | > 100 µM | 12.7 µM | > 100 µM | 17.3 µM | 89.2 µM | 21.4 µM | > 74.3 µM | 15.8 µM | 32.2 µM
11 | Nc1ccc(-c2nc3ccc4[nH]ncc4c3c3c2CCCC3)cc1F | 1.46 µM | 20.2 µM | 1.92 µM | 10.7 µM | 1.24 µM | 3.42 µM | 0.323 µM | 3.64 µM | 1.29 µM | 8.95 µM | 1.54 µM | 7.96 µM | 1.69 µM | 23.5 µM | 1.05 µM | 3.91 µM | 0.686 µM | 6.92 µM | 2 µM | 7.8 µM
12 | S=c1nc(-c2ccccc2)oc(=NC2CCCCC2)n1C1CCCCC1 | 3.26 µM | 10.3 µM | 2.31 µM | 5.98 µM | 1.9 µM | 5.29 µM | 1.99 µM | 6.38 µM | 3.85 µM | 15.2 µM | 4.21 µM | 19.6 µM | 5.56 µM | 61 µM | 3.3 µM | 14.5 µM | 6.2 µM | 27.8 µM | 4.89 µM | 20.8 µM
13 | Cc1ccc2c(c1)C(=O)c1c-2n(CCCN)c(=O)c2cc([N+](=O)[O-])ccc12 | 0.262 µM | 0.89 µM | 1.52 µM | 4.97 µM | 0.0285 µM | 0.327 µM | 0.0716 µM | 0.419 µM | 0.124 µM | 0.832 µM | 0.356 µM | 1.16 µM | 0.605 µM | 1.26 µM | 1.54 µM | 3.44 µM | 0.452 µM | 1.16 µM | 0.177 µM | 0.829 µM
